These results are taken from paper PMC6980832, “Crystal structures of Triosephosphate Isomerases from Taenia solium and Schistosoma mansoni provide insights for vaccine rationale and drug design against helminth parasites” (PLoS Neglected Tropical Diseases, 2020).

Each structure is given as a SMILES string.

In experiment [1] the target is T1, SmTPI (Schistosoma mansoni, UniProt P48501).
T1 construct: gene TPI; full length, codon-optimised synthetic gene, E. coli tpi-null strain, modified pET19; extra Gly-Pro-His before Met1; homodimer about 50 kDa
In words: X-ray crystal structure of the complex. The class given is binding. Conditions: co-crystallised with 10 mM 2-PGA; active site, closed loop 6; 2.3 Å; bound in all 8 monomers.

For experiment [2], the target named is T2, TsTPI (Taenia solium, UniProt Q9GTX8).
T2 construct: full length, codon-optimised synthetic gene, E. coli tpi-null strain, modified pET19; extra Gly-Pro-His before Met1; homodimer
In words: X-ray crystal structure of the complex. The class given is binding. As to conditions: co-crystallised with 10 mM 2-PGA; active site, closed loop 6; 2.1 Å.

T2 sequence (Q9GTX8 whole entry): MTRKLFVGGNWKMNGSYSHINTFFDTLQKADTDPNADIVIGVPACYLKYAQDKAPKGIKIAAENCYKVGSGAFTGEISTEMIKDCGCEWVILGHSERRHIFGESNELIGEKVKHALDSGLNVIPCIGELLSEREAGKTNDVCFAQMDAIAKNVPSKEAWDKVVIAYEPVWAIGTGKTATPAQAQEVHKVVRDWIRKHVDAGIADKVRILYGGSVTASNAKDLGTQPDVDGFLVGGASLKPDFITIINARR
T1 sequence (P48501 whole entry): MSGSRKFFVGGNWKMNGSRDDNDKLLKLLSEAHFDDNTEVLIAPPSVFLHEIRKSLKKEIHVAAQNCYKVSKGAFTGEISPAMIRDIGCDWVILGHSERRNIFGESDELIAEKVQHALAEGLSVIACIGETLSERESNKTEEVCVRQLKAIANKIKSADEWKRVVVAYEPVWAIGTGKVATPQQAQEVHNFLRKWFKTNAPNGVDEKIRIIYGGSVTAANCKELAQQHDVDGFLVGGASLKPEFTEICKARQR

Consider `O=C(O)[C@@H](CO)OP(=O)(O)O` [2-PGA, 2-phosphoglyceric acid], for which the “X-ray crystal structure of the complex” value is “We solved the crystal structures of TsTPI and SmTPI in complex with the inhibitor 2-PGA” in experiment [1]; “We solved the crystal structures of TsTPI and SmTPI in complex with the inhibitor 2-PGA” in experiment [2].
